Measured values reported in patent publication US20130158111A1, “Compositions and Methods for Depleting Mutant p53” (Georgetown University, priority 2011, published 2013).

How the values were obtained:
[1] = tested on: MDA-MB-231 breast cancer cells; assay: FITC-annexin V / propidium iodide apoptosis assay; type: cell-based, Human; settings: MDA-MB-231, 10 μM, 24 h; for induction of apoptosis vs DMSO: p<0.05
Procedure: Then, 100 μL of each sample was added to a 5 mm tube, and the annexin V apoptosis kit protocol was followed. Samples were immediately analyzed with flow cytometry.

[2] = target: T1, mutant p53 in MDA-MB-231 breast cancer cells (Homo sapiens, UniProt P04637, R280K); assay: Immunoblot of mutant p53 in MDA-MB-231 cells treated with ITCs; type: cell-based; settings: for depletion of mutant p53 (FIG. 3B-E): H596 20 μM / MDA-MB-231 10 μM ITCs
T1 construct: host or cells: MDA-MB-231
Excerpt: (§1) Human H596, A549, HCT116, MDA-MB-231, MDA-MB-468, MCF-7, DU145, MCF-10A, SW480, and SCC-4 cells were obtained from ATCC (Manassas, Va.). H1299-175H cells were kindly provided by Dr. Maria Laura Avantaggiati (Georgetown University). Cells were maintained in DMEM or RPMI-1640 medium supplemented with 10% FBS (Hyclone). […] 2,2-Diphenylethyl ITC, 4-phenoxybenzyl ITC, 4-methoxybenzyl ITC, 4-chlorobenzyl ITC, Dα-methylbenzyl ITC, trityl ITC, and 3-phenylpropyl ITC were purchased from Trans World Chemicals (Rockville, Md.). Erucin and 4-phenylbutyl ITC were from LKT Laboratories, Inc. (St. Paul, Minn.). […] The p53 DO-1 and β-actin antibodies were purchased from Santa Cruz Biotechnology (Santa Cruz, Calif.), horseradish peroxidase-labeled goat antimouse secondary antibodies were purchased from GE-Healthcare (Pittsburgh, Pa.), and Bio-Rad Protein Assay was from Bio-Rad (Hercules, Calif.).
(§2) Whole cell lysates were prepared in lysis buffer (20 mM HEPES, pH 7.4, 2 mM EGTA, 50 mM β-glycerol phosphate, 1% Triton X-100, 10% glycerol, 1 mM DTT, 1 mM PMSF, […], 1 mM Na3-VO4, and 5 mM NaF). For immunoblot analysis, equal amounts of protein were resolved on 4-12% NuPAGE BisTris gels (Invitrogen) and transferred to PVDF membranes (Millipore). The membranes were blocked with 5% milk in TBST and were then probed with p53 (DO-1) or β-actin antibody. Proteins were detected using enhanced chemiluminescence (ECL) reagents (GE Healthcare).

[3] = target: T2, mutant (G245C) p53 DNA-binding domain (Homo sapiens, UniProt P04637, G245C); assay: Monochlorobimane fluorometric cysteine binding assay; settings: 100 μM ITC, 1 h, 32 C; compared with trityl ITC, cyclohexylmethyl ITC, SFN, AITC, and PITC (p<0.05)
T2 construct: made in house; host or cells: Escherichia coli BL21
Procedure: BL21 […] Escherichia coli were transformed with pET29b wild-type or mutant (G245C) p53 DNA binding domain (DBD) plasmids. The E. coli were then cultured in LB media supplemented with 100 μM ZnCl2 and 25 μg/mL kanamycin at 37° C. until OD600=0.6-0.8. Protein expression was induced by 0.1 mM isopropyl β-D-1-thiogalactopyranoside for 16 h at 37 gC for wild-type and 16 gC for mutant p53. Bacterial pellets were then harvested by centrifugation at 5000×g, 10 min, 4 gC, and lysed via sonication in 50 mM Tris, 50 mM KCl, 5 mM dithiothreitol, 1 mM PMSF, pH 7 buffer. The soluble fraction was passed through a Capto S cation exchange column (GE Healthcare) and eluted with 50 mM Tris, 200 mM KCl, 5 mM DTT, pH 7. Eluted protein was dialyzed overnight against a non-salt dialysis buffer (50 mM Tris, 5 mM DTT, pH 7) and loaded onto a HiTrap Heparin HP column (GE Healthcare). The p53 DBD was purified via a AKTApurifier-10 protein liquid chromatography system (GE Healthcare) with an increasing KCl salt gradient, and purity was tested by SDSPAGE and Coomassie blue staining. Purified protein was dialyzed in PBS, and protein concentrations were determined prior to performing fluorescence experiments.
In a white 96-well plate, 100 μL of purified mutant (G245C) p53 DNA-binding domain protein in PBS was treated with DMSO, 100 μM ITCs in DMSO, or 500 μM iodoacetamide (positive binding control). An additional well containing 100 μL of PBS was used to determine background. Samples were incubated with compounds in the dark for 1 h at 32 gC, after which […] of 10 mM monochlorobimane was added (in the dark), and samples were further incubated in the dark at 32 gC for 30 min. Fluorescence readings were then obtained using a BIO-TEK Synergy HT plate reader (λex 380 nm; λem 485 nm).

[4] = target: T3, mutant p53 protein in H596 (G245C) non-small-cell lung cancer cells (Homo sapiens, UniProt P04637, G245C); assay: Immunoblot of mutant p53 protein in H596 cells; type: cell-based
T3 construct: host or cells: H596
Excerpt: as §1, §2

SMILES	induction of apoptosis vs DMSO [1]	depletion of mutant p53 (FIG. 3B-E) [2]	binding affinity for mutant (G245C) p53 DBD (free thiols, relative fluorescence) [3]	further results
S=C=NCC(c1ccccc1)c1ccccc1 [2,2-diphenylethyl ITC, 2,2-diphenylethyl isothiocyanate]	greater induction of apoptosis	deplete mutant p53	greater binding affinities	rank as inducer of apoptosis ([1]; p<0.05 compared with BITC): strongest inducer of apoptosis; rank as depletor of mutant p53 among ITCs studied ([2]; FIG. 3B-E): most potent
S=C=NCCCc1ccccc1 [3-PPITC, 3-phenylpropyl ITC]	greater induction of apoptosis	deplete mutant p53	greater binding affinities	
S=C=NCCCCc1ccccc1 [4-PBITC, 4-phenylbutyl ITC]	greater induction of apoptosis	deplete mutant p53		
S=C=NCc1ccc(Cl)cc1 [4-chlorobenzyl ITC]			greater binding affinities	
COc1ccc(CN=C=S)cc1 [4-methoxybenzyl ITC]			greater binding affinities	
S=C=NCc1ccccc1 [BITC, benzyl isothiocyanate]	greater induction of apoptosis	deplete mutant p53	greater binding affinities	level of mutant p53 ([4]; H596, 10 μM, 2 h): significantly reduced; depletion of mutant p53 at equimolar concentrations ([4]; H596, 20 μM ITCs, 24 h, compared with DMSO control): approximately the same extent; depletion of mutant p53 at equimolar concentrations ([2]; MDA-MB-231, 10 μM ITCs, 24 h, compared with DMSO control): approximately the same extent
CNCCc1ccccc1 [NMPEA, N-methylphenethylamine, reference compound]				mutant p53 protein level ([4]; H596, 15 μM, up to 24 h): failed to alter; mutant p53 protein level ([4]; H596, 60 μM for 2 h): failed to alter
